Results reported in paper PMC10609219 (Molecules, 2023).

Target: T1, DPP-4 (Homo sapiens, UniProt P27487)
T1 construct: gene DPP4
Experiment: fluorogenic enzyme inhibition assay (Cayman DPP-4 inhibitor screening kit)
Format: biochemical

T1 sequence (P27487 39-766): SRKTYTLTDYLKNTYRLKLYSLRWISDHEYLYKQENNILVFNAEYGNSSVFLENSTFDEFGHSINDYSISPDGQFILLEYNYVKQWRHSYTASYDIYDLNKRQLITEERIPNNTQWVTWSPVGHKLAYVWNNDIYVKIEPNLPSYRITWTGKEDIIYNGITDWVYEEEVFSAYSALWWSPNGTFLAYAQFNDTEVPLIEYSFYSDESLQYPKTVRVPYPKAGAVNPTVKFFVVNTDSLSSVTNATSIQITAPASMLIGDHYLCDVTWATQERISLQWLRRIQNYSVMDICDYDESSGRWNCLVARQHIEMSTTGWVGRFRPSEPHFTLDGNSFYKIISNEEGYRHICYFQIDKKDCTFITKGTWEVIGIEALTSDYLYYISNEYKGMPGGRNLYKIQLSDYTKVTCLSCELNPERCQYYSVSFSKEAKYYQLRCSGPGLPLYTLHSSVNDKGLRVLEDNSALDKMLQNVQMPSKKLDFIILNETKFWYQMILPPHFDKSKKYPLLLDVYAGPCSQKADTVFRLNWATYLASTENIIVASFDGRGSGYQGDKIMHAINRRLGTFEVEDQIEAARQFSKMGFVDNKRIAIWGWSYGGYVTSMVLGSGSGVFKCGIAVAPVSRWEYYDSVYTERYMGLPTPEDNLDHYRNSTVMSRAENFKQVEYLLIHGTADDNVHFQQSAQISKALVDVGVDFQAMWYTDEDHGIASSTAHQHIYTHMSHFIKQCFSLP

SMILES: O=C(O)/C=C/c1ccc(O)c(O)c1 [caffeic acid, (E)-3-(3,4-dihydroxyphenyl)prop-2-enoic acid]
- IC50: 158 ± 11.3 µM
